Laboratory results: US9428519B2, “Acylated derivative of homoharringtonine, preparation method therefor, and application thereof” (HANGZHOU BENSHENG PHARMACEUTICAL CO., LTD., priority 2011, dated 2016)
Values after ≈ are worked out from the molar mass of the structure shown.

What was measured:
[1] = tested on: Jurkat (acute lymphoblastic leukemia, ALL); assay: MTT growth inhibition of leukemia cells, 72 h; assay type: cell-based, human; conditions: Homo sapiens, Jurkat
Excerpt: (§1) Leukemia cell lines: leukemia cell lines: K562/adr (drug-resistant, chronic myeloid leukemia, CML), NB4 (acute promyelocytic leukemia, AML), Kasumi-1 (acute myeloid leukemia M2 type, AML-M2), Jurkat (acute lymphoblastic leukemia, ALL), all of which are donated by Cancer Research Institute of Zhejiang University, China; and H9 (acute lymphoblastic leukemia, ALL), which is purchased from China Center for Type Culture Collection (CCTCC).
(§2) Reagents: The standard sample of homoharringtonine (HHT) is purchased from Taihua Natural Plant Pharmaceutical Co., Ltd., Shaanxi, China, the homoharringtonine derivatives of the present invention.
(§3) Obtaining 6000 well-growing leukemia cells and inoculating them into wells of a 96-well cell culture plate. The culture medium is the 1640 cell culture medium containing 10% fetal bovine serum. After adding the homoharringtonine derivatives of different concentrations and mixing uniformly, placing the plate in a carbon dioxide cell incubator (5% CO2) at 37° C. and incubated for 72 hours. Then the viable cell concentration is determined by the MTT method. In this experiment, the cell viability in control group (not treated with any compound) is set as 100%. On such basis, the cell viability (%) after treatment and the 50% inhibiting concentration of the compound for the leukemia cell growth at 72 hours (IC50 value of 72 hours) are calculated.

[2] = tested on: Kasumi-1 (acute myeloid leukemia M2 type, AML-M2); assay: MTT growth inhibition of leukemia cells, 72 h; assay type: cell-based, human; conditions: Homo sapiens, Kasumi 1, MTT
Excerpt: as §1, §2, §3

[3] = tested on: K562/adr (drug-resistant, chronic myeloid leukemia, CML); assay: MTT growth inhibition of leukemia cells, 72 h; assay type: cell-based, human; conditions: Homo sapiens, K562/Adr, MTT
Excerpt: as §1, §2, §3

[4] = tested on: H9 (acute lymphoblastic leukemia, ALL); assay: MTT growth inhibition of leukemia cells, 72 h; assay type: cell-based, human; conditions: Homo sapiens, MTT
Excerpt: as §1, §2, §3

[5] = tested on: NB4 (acute promyelocytic leukemia, AML); assay: MTT growth inhibition of leukemia cells, 72 h; assay type: cell-based, human; conditions: Homo sapiens, MTT
Excerpt: as §1, §2, §3

[6] = tested on: RPMI8226 (multiple myeloma); assay: MTT growth inhibition of multiple myeloma cells, 72 h; assay type: cell-based, human; conditions: Homo sapiens, RPMI-8226, MTT
Protocol: Multiple myeloma and lymphoma cell lines: RPMI8226 (multiple myeloma), purchased from Fuxiang Bio-tech Co. Ltd., Shanghai, China.
as §3

[7] = tested on: Becap37 (human breast cancer cell); assay: MTT growth inhibition of human solid tumor cells, 72 h; assay type: cell-based; conditions: Homo sapiens
Protocol: (§4) Human solid tumor cell lines: Hep-2 (laryngeal carcinoma), A549 (human lung cancer), CaES-17 (esophageal cancer cell), PC-3 (prostate cancer), CNE (nasopharyngeal carcinoma cell), and SK-OV-3 (ovarian cancer cell), all of which are purchased from China Center For Type Culture Collection; RKO (human colon adenocarcinoma cell), MGC 803 (human gastric cancer cell), MG63 (osteosarcoma) and U87 MG (malignant glioma cell), all of which are purchased from Fuxiang Bio-tech Co. Ltd., Shanghai, China; PANC-1 (pancreatic cancer), Huh7 (human liver cancer cell), Becap37 (human breast cancer cell), and Hela (human cervical cancer cell), all of which are donated by Cancer Research Institute of Zhejiang University, China.
(§5) Obtaining 4000 well-growing human solid tumor cells and inoculating them into wells of a 96-well cell culture plate. The culture medium is DMEM High Glucose cell culture medium containing 10% fetal bovine serum. The plate is placed in a carbon dioxide cell incubator (5% CO2) at 37° C. and incubated for 24 hours. After adding the homoharringtonine derivatives of different concentration and mixing uniformly, the plate is placed in a carbon dioxide cell incubator (5% CO2) at 37° C. and incubated for 72 hours. Then the viable cell concentration is determined by the MTT method and the cell viability (%) after drug treatment is calculated. In this experiment, the cell viability of control group (not treated with any compound) is set as 100%.

[8] = tested on: SK-OV-3 (ovarian cancer cell); assay: as above; assay type: cell-based; conditions: Homo sapiens, SK-OV-3, MTT
Protocol: as §4, §5

[9] = tested on: CaES-17 (esophageal cancer cell); assay: as above; assay type: cell-based; conditions: Homo sapiens, CaEs17
Protocol: as §4, §5

[10] = tested on: U87 MG (malignant glioma cell); assay: as above; assay type: cell-based; conditions: Homo sapiens, U-87 MG
Protocol: as §4, §5

A549 (human lung cancer) = assay: as above; assay type: cell-based; conditions: Homo sapiens, A549
Protocol: as §4, §5

[11] = tested on: Huh7 (human liver cancer cell); assay: as above; assay type: cell-based; conditions: Homo sapiens, Huh-7
Protocol: as §4, §5

[12] = tested on: PANC-1 (pancreatic cancer); assay: as above; assay type: cell-based; conditions: Homo sapiens, PANC-1, MTT
Protocol: as §4, §5

PC-3 (prostate cancer) = assay: as above; assay type: cell-based; conditions: Homo sapiens, MTT
Protocol: as §4, §5

MG63 (osteosarcoma) = assay: as above; assay type: cell-based; conditions: Homo sapiens, MG-63, MTT
Protocol: as §4, §5

[13] = tested on: RKO (human colon adenocarcinoma cell); assay: as above; assay type: cell-based; conditions: Homo sapiens, MTT
Protocol: as §4, §5

[14] = tested on: CNE (nasopharyngeal carcinoma cell); assay: as above; assay type: cell-based; conditions: Homo sapiens, MTT
Protocol: as §4, §5

[15] = tested on: Hep-2 (laryngeal carcinoma); assay: as above; assay type: cell-based; conditions: Homo sapiens, HEp-2
Protocol: as §4, §5

[16] = tested on: Hela (human cervical cancer cell); assay: as above; assay type: cell-based; conditions: Homo sapiens, HeLa, MTT
Protocol: as §4, §5

[17] = tested on: MGC 803 (human gastric cancer cell); assay: as above; assay type: cell-based; conditions: Homo sapiens, MGC-803
Protocol: as §4, §5

`COC(=O)C[C@](O)(CCCC(C)(C)O)C(=O)O[C@@H]1C(OC)=C[C@]23CCCN2CCc2cc4c(cc2[C@H]13)OCO4` [HHT, O-3-[(2R)-2,6-dihydroxy-2-(2′-methoxy-2′-oxoethyl)-6-methylheptanoyl]cephalotaxine, reference compound] was tested, and the IC50 [1] was 0.007 µg/mL (≈ 0.0128 µM), the IC90 [1] was ≥ 16 µg/mL and the IC50 [2] was 0.005 µg/mL (≈ 0.00916 µM). It also gave an IC90 [2] of 0.024 µg/mL (≈ 0.044 µM), an IC50 [3] of 0.035 µg/mL (≈ 0.0641 µM) and an IC90 [3] of 0.98 µg/mL (≈ 1.8 µM). For the same molecule, the IC50 [4] was 0.02 µg/mL (≈ 0.0367 µM), the IC90 [4] was 0.046 µg/mL (≈ 0.0843 µM) and the IC50 [5] was 0.006 µg/mL (≈ 0.011 µM). The IC90 [5] was 0.012 µg/mL (≈ 0.022 µM), the IC50 [6] was 0.006 µg/mL (≈ 0.011 µM) and the IC90 [6] was 0.027 µg/mL (≈ 0.0495 µM). For the same molecule, the IC50 [7] was 0.01 µg/mL (≈ 0.0183 µM), the IC90 [7] was 11.6 µg/mL (≈ 21.2 µM) and the IC50 [8] was 0.09 µg/mL (≈ 0.165 µM). The IC90 [8] was > 16 µg/mL, the IC50 [9] was 0.037 µg/mL (≈ 0.0678 µM) and the IC90 [9] was > 16 µg/mL. For the same molecule, the IC50 [10] was 0.004 µg/mL (≈ 0.00733 µM), the IC90 [10] was 0.018 µg/mL (≈ 0.033 µM) and the IC50 (A549 (human lung cancer)) was 0.03 µg/mL (≈ 0.055 µM). The IC90 (A549 (human lung cancer)) was > 16 µg/mL, the IC50 [11] was 0.004 µg/mL (≈ 0.00733 µM) and the IC90 [11] was 0.049 µg/mL (≈ 0.0898 µM). The IC50 [12] was 0.035 µg/mL (≈ 0.0641 µM), the IC90 [12] was > 16 µg/mL and the IC50 (PC-3 (prostate cancer)) was 0.08 µg/mL (≈ 0.147 µM). For the same molecule, the IC90 (PC-3 (prostate cancer)) was > 16 µg/mL, the IC50 (MG63 (osteosarcoma)) was 0.01 µg/mL (≈ 0.0183 µM) and the IC90 (MG63 (osteosarcoma)) was 1.2 µg/mL (≈ 2.2 µM). For the same molecule, the IC50 [13] was 0.003 µg/mL (≈ 0.0055 µM), the IC90 [13] was 0.009 µg/mL (≈ 0.0165 µM) and the IC50 [14] was 0.038 µg/mL (≈ 0.0696 µM). For the same molecule, the IC90 [14] was > 16 µg/mL, the IC50 [15] was 0.014 µg/mL (≈ 0.0257 µM) and the IC90 [15] was > 16 µg/mL. The IC50 [16] was 0.019 µg/mL (≈ 0.0348 µM), the IC90 [16] was 16 µg/mL (≈ 29.3 µM) and the IC50 [17] was 0.016 µg/mL (≈ 0.0293 µM). The IC90 [17] was 0.2 µg/mL (≈ 0.367 µM).
